What was measured:
Assay type in all cases: cell-based, human
[1] = test system: DU-145 prostate cancer cells; experiment: In vitro cytotoxicity against DU-145 prostate cancer cells; conditions: DU-145 cells; for IC50: five days
Protocol: (§1) The half maximal inhibitory concentration (IC50) is a measure of the effectiveness of a substance in inhibiting a specific biological or biochemical function. It is commonly used as a measure of antagonist drug potency.
Cell numbers were counted with a cell viability analyzer (Beckman-Coulter).
(§2) A preliminary dose response curve was prepared from the collected data by means well known to those of ordinary skill in the art.
(§3) The six different concentrations fell within a selected linear concentration range determined by reference to the preliminary dose response curve and efforts to estimate the concentration at which 50% of the cell growth would be inhibited. The selected six different concentrations were used to further fill out the dose response curve to pinpoint a more exact IC50 value.

[2] = test system: HeLa cervical cancer cells; experiment: HeLa cell viability after treatment with analog (cell count, cell viability analyzer); conditions: three days, relative to DMSO vehicle
Protocol: Cell numbers were counted with a cell viability analyzer (Beckman-Coulter). The ratio of drug treated viable cell numbers to control vehicle (DMSO) treated viable cell numbers was defined as percentage viability. […] Compound nos.
The HeLa cells used in the experiments summarized by Table 5 were cultured in RPMI-1640 medium supplemented with 10% FBS, 4 mM glutamine, 1 mM sodium pyruvate, 100 IU/mL penicillin, 100 ug/mL streptomycin and 0.25 ug/mL amphotericin. The HeLa cells were plated in 24-well plates at a density of 20,000 cells in each well in 10% FBS RPMI-1640. […] Cell numbers were counted with a cell viability analyzer (Beckman-Coulter). […]

[3] = test system: PC-3 prostate cancer cells; experiment: In vitro cytotoxicity against PC-3 prostate cancer cells; conditions: PC-3 cells; for IC50: five days
Protocol: as §1
Cell cultures were maintained in 5% carbon dioxide at a temperature of 37° C. […] Cell numbers were counted with a cell viability analyzer (Beckman-Coulter). […] A preliminary dose response curve was prepared from the collected data by means well known to those of ordinary skill in the art.
as §3

[4] = test system: HeLa cervical cancer cells; experiment: In vitro cytotoxicity against HeLa cervical cancer cells; conditions: for IC50: three days
Protocol: as §1
Cell numbers were counted with a cell viability analyzer (Beckman-Coulter). The ratio of drug treated viable cell numbers to vehicle treated viable cell numbers was defined as percentage viability.
as §2, §3

SMILES | IC50 (curcumin)/IC50 (analog) [1] | IC50 [1] [µM] | HeLa Cell viability after treatment with analog (% viability) ([2]; 1 μM) [%] | HeLa Cell viability after treatment with analog (% viability) ([2]; 10 μM) [%] | IC50 (curcumin)/IC50 (analog) [3] | IC50 [3] [µM] | IC50 (curcumin)/IC50 (analog) [4] | IC50 [4] [µM]
Cc1nc(C=C2CCCC(=Cc3coc(C)n3)C2=O)co1 [Compound 17] | 0.18 | 1.65 | 100 | 59.5 | 1 | 1.97 | – | –
CCC(CC)n1c(/C=C/C(=O)/C=C/c2nc3ccccc3n2C(CC)CC)nc2ccccc21 [Compound 45] | – | – | – | – | – | – | 15 | 0.696
O=C1C(=Cc2cscn2)CCCC1=Cc1cscn1 [Compound 16] | – | 0.075 | 79 | 15.8 | 16.5 | 0.12 | – | –
CC(C)CCn1ccnc1/C=C/C(=O)/C=C/c1nccn1CCC(C)C [Compound 33] | – | – | 3.0 | – | – | – | – | 0.23
CC(C)Cn1c(/C=C/C(=O)/C=C/c2nc3ccccc3n2CC(C)C)nc2ccccc21 [Compound 41] | – | – | 5.72 | – | – | – | – | 0.321
O=C(/C=C/c1nccs1)/C=C/c1nccs1 [Compound 24] | – | 0.055 | 68 | 19.2 | – | 0.068 | – | –
CC(C)n1ccnc1C=C1CN(C)CC(=Cc2nccn2C(C)C)C1=O [Compound 1] | – | 0.14 | 126.94 | 118.5 | 18 | 0.11 | – | –
Cc1cc(C=C2CN(C)CC(=Cc3cc(C)no3)C2=O)on1 [Compound 9] | 0.4 | 0.69 | 75.3 | 27.8 | – | 0.13 | – | –
CCC(CC)n1ccnc1/C=C/C(=O)/C=C/c1nccn1C(CC)CC [Compound 32] | – | – | 3.4 | – | – | – | – | 0.25
CN1CC(=Cc2ccnn2C)C(=O)C(=Cc2ccnn2C)C1 [Compound 4] | 0.18 | 1.64 | 107.1 | 67.4 | 1.9 | 1.02 | – | –
CN1CC(=Cc2cnn(C)c2)C(=O)C(=Cc2cnn(C)c2)C1 [Compound 3] | 0.0002 | 1870 | 100.9 | 97.8 | 0.03 | 76 | – | –
CCC(C)n1ccnc1C=C1CN(C)CC(=Cc2nccn2C(C)CC)C1=O (stereo not shown) [Compound 2] | – | 0.01 | 111.1 | 95.9 | – | 6.63 | – | –
Cn1nccc1C=C1CCCC(=Cc2ccnn2C)C1=O [Compound 14] | 0.41 | 0.73 | 88 | 71.4 | 7.6 | 0.26 | – | –
O=C(/C=C/c1ccncc1F)/C=C/c1ccncc1F [Compound 36] | – | – | 25.6 | – | – | – | – | –
Cc1cc(C=C2CCCC(=Cc3cc(C)no3)C2=O)on1 [Compound 19] | 0.9 | 0.34 | 95 | 15.9 | – | 0.054 | – | –
CCC(C)n1ccnc1C=C1CCCC(=Cc2nccn2C(C)CC)C1=O (stereo not shown) [Compound 11] | – | 0.25 | 100 | 100 | 2 | 0.83 | – | –

SMILES | IC50 (curcumin)/IC50 (analog) [1] | IC50 [1] [µM] | HeLa Cell viability after treatment with analog (% viability) ([2]; 1 μM) [%] | HeLa Cell viability after treatment with analog (% viability) ([2]; 10 μM) [%] | IC50 (curcumin)/IC50 (analog) [3] | IC50 [3] [µM] | IC50 (curcumin)/IC50 (analog) [4] | IC50 [4] [µM]
Cc1csc(/C=C/C(=O)/C=C/c2nc(C)cs2)n1 [Compound 31] | – | – | 52 | – | – | – | – | –
CCCCCCn1ccnc1/C=C/C(=O)/C=C/c1nccn1CCCCCC [Compound 35] | – | – | 6.1 | – | – | – | 18 | 0.59
O=C(/C=C/c1cocn1)/C=C/c1cocn1 [Compound 37] | – | – | 72.9 | – | – | – | – | –
CN1CC(=Cc2nccs2)C(=O)C(=Cc2nccs2)C1 [Compound 5] | – | 0.046 | 51.7 | 21.6 | 4.7 | 0.42 | – | –
Cc1nc(/C=C/C(=O)/C=C/c2coc(C)n2)co1 [Compound 26] | 0.4 | 0.75 | 100 | 65.9 | 2.4 | 0.84 | – | –
Cc1noc(C)c1/C=C/C(=O)/C=C/c1c(C)noc1C [Compound 30] | – | – | 67 | – | – | – | – | –
Cn1cc(C=C2CCCC(=Cc3cnn(C)c3)C2=O)cn1 [Compound 13] | 0.003 | 90 | 97 | 100 | 0.015 | 130 | – | –
O=C1C(=Cc2nccs2)CCCC1=Cc1nccs1 [Compound 15] | – | 0.12 | 78 | 9.7 | 18 | 0.11 | – | –
Cc1nc(C=C2CN(C)CC(=Cc3coc(C)n3)C2=O)co1 [Compound 7] | – | 0.076 | 59.5 | 59.5 | 6.4 | 0.31 | – | –
O=C(/C=C/c1cscn1)/C=C/c1cscn1 [Compound 25] | – | 0.096 | 89 | 13.7 | – | 0.094 | – | –
CC(C)n1ccnc1C=C1CCCC(=Cc2nccn2C(C)C)C1=O [Compound 10] | – | 0.1 | 114.9 | 85.1 | – | 0.16 | – | –
Cn1nccc1/C=C/C(=O)/C=C/c1ccnn1C [Compound 23] | – | 0.16 | 59 | 82.6 | – | 1.9 | – | –
Cn1cc(/C=C/C(=O)/C=C/c2cnn(C)c2)cn1 [Compound 38] | – | – | 92.8 | – | – | – | – | –
O=C(/C=C/c1cncs1)/C=C/c1cncs1 [Compound 29] | – | – | 77 | – | – | – | – | –
CCCC(C)n1ccnc1/C=C/C(=O)/C=C/c1nccn1C(C)CCC (stereo not shown) [Compound 34] | – | – | 7.7 | – | – | – | – | 0.15
CC(C)Cn1ccnc1C=C1CCCC(=Cc2nccn2CC(C)C)C1=O [Compound 12] | 0.8 | 0.36 | 100 | 94.5 | 4.2 | 0.47 | – | –
